# “Also recorded” adds a separate entry of the source.
# How the values were obtained:
# [1] = in vitro; conditions: human, Caco-2, pH 7.4
# [2] = system: Male Sprague-Dawley rats; assay: Spontaneous locomotor activity in rats (sedative properties); format: in vivo, rat
# Description: A study was carried out in rats to determine whether the dihydrotetrabenazine isomers of the invention have sedative properties. The effects of the isomers on spontaneous locomotor activity in rats were compared with the effects produced by tetrabenazine and haloperidol using the methods set out below.
# Male Sprague-Dawley rats, (Charles River Laboratories, Saint-Germain/L'Arbresle, France), weighing 200-250 g at the beginning of the study, were used for the studies. The rats were housed, 2 or 3 per cage, in Makrolon type III cages, in a room set up with the following environmental conditions: temperature: 20±2° C., humidity: minimum 45%, air changes: >12 per hour, light/dark cycle of 12 h/12 h [on at 7:00 a.m.]. The rats were allowed to acclimatize to their conditions for at least five days before commencement of the study. The rats received food (Dietex, Vigny, France, ref. 811002) and water (tap water in water bottle) ad libitum.
# Solutions of each test compound in corn oil were freshly prepared on the day of the experiment. Haloperidol was prepared in hydroxyethylcellulose, 0.5% in deionized water. Either the vehicle or the test compounds were administered as a single dose (0.3, 1, 3 and 10 mg/kg, 2 mL/kg i.p.). The reference compound haloperidol (1 mg/kg) was administered i.p. (2 mL/kg).
# The animals were placed in plexiglass cages under a video camera in a room with low light intensity (maximum 50 lux). At forty five minutes and 3 hours after administration, locomotor activity was determined during 20 minute periods using a video image analyzer (Videotrack, View Point, France). Locomotor activity was recorded in the reference group (haloperidol) at 1 hour after administration. The number and duration of ambulatory movements and duration of inactivity was measured. At the end of the locomotor activity measurement (45 minutes and 3 hours), palpebral closure and arousal were be scored as follows in the plexiglass cage:
# The number of occurrences and duration (in seconds) of ambulatory (large) movements and the duration of periods of inactivity (seconds) was determined during two 20 minute periods (45 minutes and 3 hours after administration) using a video image analyzer (Videotrack, ViewPoint, Lyon, France). Image tracking was performed using a video camera placed above the plexiglass cage, recording overall locomotor activity. Images recorded with the video camera were digitalized and displacement of the centre of gravity of the digital image spots was tracked and analyzed using the following method: the speed of displacement of the centre of gravity of the spot was measured and two threshold values were set to define the type of movement: threshold 1 (high speed) and threshold 2 (low speed). When the animal moved and the speed of displacement of the centre of gravity of the spot was above threshold 1, the movement was considered as an ambulatory movement.
# The results were expressed as the means±SEMs of the 12 individual values. Statistical analyses were carried out using ANOVA (one way) and Dunnett's t-test and with the non parametric test of Kruskal-Wallis followed by a Mann & Whitney U-test for the sedation cotation. A p value of p<0.05 was taken as indicating significance.
# [3] = molecular target: T1, Adrenergic α2A Receptor (Homo sapiens, UniProt P08913); assay: Adrenergic α2A receptor radioligand binding; conditions: 10 μM; 1 nM [3H] MK-912
# T1 construct: expressed in transfected cells; host or cells: insect Sf9 cells
# T1 sequence (P08913 1-465): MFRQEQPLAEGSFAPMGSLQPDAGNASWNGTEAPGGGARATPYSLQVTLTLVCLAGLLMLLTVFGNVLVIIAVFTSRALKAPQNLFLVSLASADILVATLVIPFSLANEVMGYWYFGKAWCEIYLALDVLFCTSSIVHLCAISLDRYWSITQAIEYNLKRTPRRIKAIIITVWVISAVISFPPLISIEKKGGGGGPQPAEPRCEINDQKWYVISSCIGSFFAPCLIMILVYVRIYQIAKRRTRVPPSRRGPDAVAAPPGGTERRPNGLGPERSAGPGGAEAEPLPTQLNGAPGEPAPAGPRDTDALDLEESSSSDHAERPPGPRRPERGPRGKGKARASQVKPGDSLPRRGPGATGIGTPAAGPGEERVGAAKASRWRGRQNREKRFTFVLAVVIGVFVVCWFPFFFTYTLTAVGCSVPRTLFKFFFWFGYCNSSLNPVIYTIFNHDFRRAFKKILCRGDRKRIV
# Description: (§1) (a) Adrenergic α2A Receptor: • Reference: S. Uhlen et al. J. Pharmacol. Exp. Ther., 271:1558-1565 (1994) • Source: Human recombinant insect Sf9 cells • Ligand: 1 nM [^3H] […] J. Pharmacol., 99:803-809, (1990) • Source: Wistar rat cerebral cortex • Ligand: 2 nM [3H]
# [4] = molecular target: T2, Adrenergic α2B Receptor (Homo sapiens, UniProt P18089); assay: Adrenergic α2B receptor radioligand binding; conditions: 10 μM; 2.5 nM [3H] Rauwolscine
# T2 construct: expressed in transfected cells; host or cells: CHO-K1 cells
# T2 sequence (P18089 1-450): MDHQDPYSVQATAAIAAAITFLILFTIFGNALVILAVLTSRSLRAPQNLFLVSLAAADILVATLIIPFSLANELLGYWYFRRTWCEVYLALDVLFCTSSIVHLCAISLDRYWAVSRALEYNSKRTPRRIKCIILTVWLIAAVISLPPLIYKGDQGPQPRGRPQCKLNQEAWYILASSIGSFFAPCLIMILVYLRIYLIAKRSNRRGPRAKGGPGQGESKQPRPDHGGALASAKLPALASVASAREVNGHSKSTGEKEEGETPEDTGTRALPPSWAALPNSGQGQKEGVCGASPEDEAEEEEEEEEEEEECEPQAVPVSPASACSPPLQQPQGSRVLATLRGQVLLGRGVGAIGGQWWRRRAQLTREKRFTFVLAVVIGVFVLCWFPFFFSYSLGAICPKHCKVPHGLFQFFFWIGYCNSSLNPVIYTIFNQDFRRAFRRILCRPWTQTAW
# Description: as §1
# [5] = molecular target: T3, Dopamine D1 Receptor (Homo sapiens, UniProt P21728); assay: Dopamine D1 receptor radioligand binding; conditions: 10 μM; 1.4 nM [3H] SCH-23390
# T3 construct: expressed in transfected cells; host or cells: CHO cells
# T3 sequence (P21728 whole entry): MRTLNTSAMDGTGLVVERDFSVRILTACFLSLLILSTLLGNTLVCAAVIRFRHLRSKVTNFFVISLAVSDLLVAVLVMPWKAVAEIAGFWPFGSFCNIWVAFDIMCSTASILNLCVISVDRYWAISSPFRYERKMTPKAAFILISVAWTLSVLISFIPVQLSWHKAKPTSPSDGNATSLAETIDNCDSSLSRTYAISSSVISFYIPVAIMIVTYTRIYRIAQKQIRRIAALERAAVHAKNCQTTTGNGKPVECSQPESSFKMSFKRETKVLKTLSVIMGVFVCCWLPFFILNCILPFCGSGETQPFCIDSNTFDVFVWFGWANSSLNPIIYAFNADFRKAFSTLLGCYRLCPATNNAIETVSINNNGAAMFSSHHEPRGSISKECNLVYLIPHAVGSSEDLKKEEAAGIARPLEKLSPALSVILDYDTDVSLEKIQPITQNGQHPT
# Description: as §1
# [6] = molecular target: T4, Dopamine D2L Receptor (Homo sapiens, UniProt P14416); assay: Dopamine D2L receptor radioligand binding; conditions: 10 μM; 0.16 nM [3H] Spiperone
# T4 construct: expressed in transfected cells; host or cells: CHO cells
# T4 sequence (P14416 whole entry): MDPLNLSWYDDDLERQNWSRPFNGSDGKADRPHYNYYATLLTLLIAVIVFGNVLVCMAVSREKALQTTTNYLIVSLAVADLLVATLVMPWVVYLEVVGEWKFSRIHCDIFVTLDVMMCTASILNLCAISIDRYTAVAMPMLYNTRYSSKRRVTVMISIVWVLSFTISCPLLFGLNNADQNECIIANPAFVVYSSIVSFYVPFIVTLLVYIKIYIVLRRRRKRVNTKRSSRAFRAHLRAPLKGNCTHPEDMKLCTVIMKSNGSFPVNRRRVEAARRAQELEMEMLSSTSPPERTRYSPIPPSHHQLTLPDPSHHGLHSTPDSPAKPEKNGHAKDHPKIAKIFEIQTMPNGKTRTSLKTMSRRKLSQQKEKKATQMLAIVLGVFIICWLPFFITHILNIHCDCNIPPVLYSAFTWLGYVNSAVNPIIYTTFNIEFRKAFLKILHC
# Description: as §1
# [7] = molecular target: T5, Dopamine D3 Receptor (Homo sapiens, UniProt P35462); assay: Dopamine D3 receptor radioligand binding; conditions: 10 μM; 0.7 nM [3H] Spiperone
# T5 construct: expressed in transfected cells; host or cells: CHO cells
# T5 sequence (P35462 whole entry): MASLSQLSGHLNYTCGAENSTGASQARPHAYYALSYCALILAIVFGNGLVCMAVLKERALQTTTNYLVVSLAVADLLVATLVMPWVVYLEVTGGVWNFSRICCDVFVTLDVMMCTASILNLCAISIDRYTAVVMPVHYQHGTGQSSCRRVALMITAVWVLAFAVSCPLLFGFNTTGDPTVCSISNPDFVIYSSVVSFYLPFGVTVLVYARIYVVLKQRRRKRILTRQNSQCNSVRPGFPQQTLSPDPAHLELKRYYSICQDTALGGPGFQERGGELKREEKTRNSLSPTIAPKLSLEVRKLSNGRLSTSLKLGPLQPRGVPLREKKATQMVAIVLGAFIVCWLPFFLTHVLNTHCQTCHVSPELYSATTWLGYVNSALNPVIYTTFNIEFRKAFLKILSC
# Description: as §1
# [8] = system: Imidazoline I2 (Central) Receptor; assay: Imidazoline I2 (central) receptor radioligand binding; design: species or system Wistar rat; conditions: 10 μM; 2 nM [3H] Idazoxan
# Description: as §1
# [9] = molecular target: T6, Sigma σ1 Receptor (Homo sapiens, UniProt Q99720); assay: Sigma σ1 receptor radioligand binding; conditions: 10 μM; 8 nM [3H] Haloperidol
# T6 construct: Source: Human jurkat cells; endogenous in cells; host or cells: Jurkat cells
# T6 sequence (Q99720 whole entry): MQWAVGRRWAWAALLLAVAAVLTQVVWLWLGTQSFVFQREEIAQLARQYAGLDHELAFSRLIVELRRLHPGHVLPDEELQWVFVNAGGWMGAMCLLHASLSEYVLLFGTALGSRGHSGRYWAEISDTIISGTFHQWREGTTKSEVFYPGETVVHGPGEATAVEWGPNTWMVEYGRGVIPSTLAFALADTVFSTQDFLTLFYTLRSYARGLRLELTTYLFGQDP
# Description: as §1
# [10] = molecular target: T7, Sigma σ2 Receptor (Rattus norvegicus, UniProt Q5U3Y7); assay: Sigma σ2 receptor radioligand binding; design: species or system Wistar rat; conditions: 3 nM [3H] Ifenprodil
# T7 construct: Source: Wistar rat brain; from tissue; host or cells: Wistar rat brain
# T7 sequence (Q5U3Y7 1-176): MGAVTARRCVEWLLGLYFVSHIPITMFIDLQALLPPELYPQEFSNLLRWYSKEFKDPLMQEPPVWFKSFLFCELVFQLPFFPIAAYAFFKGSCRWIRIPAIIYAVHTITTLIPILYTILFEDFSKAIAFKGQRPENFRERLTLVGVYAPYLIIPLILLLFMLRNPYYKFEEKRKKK
# Description: as §1
# [11] = molecular target: T8, Serotonin Transporter (SERT) (Homo sapiens, UniProt P31645); assay: Serotonin transporter (SERT) radioligand binding; conditions: 10 μM; 0.15 nM [125I] RTI-55
# T8 construct: expressed in transfected cells; host or cells: HEK-293 cells
# T8 sequence (P31645 whole entry): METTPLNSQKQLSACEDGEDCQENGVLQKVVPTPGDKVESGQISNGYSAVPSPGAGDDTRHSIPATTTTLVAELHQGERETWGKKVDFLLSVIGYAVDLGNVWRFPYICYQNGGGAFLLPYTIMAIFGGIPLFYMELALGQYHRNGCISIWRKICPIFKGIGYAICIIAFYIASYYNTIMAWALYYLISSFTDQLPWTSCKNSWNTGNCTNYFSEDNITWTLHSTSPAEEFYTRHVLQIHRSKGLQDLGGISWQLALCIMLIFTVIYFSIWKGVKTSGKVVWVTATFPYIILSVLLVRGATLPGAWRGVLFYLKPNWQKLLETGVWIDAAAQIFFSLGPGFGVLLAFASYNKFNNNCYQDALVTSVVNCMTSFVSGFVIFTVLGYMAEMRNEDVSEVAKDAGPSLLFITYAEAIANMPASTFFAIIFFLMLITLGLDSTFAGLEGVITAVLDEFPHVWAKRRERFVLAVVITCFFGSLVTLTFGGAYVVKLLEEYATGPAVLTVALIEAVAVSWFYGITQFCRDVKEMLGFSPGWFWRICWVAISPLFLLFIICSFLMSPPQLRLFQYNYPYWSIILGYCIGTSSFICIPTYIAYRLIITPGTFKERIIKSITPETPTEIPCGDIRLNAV
# Description: as §1
# [12] = molecular target: T9, Dopamine Transporter (DAT) (Homo sapiens, UniProt Q01959); assay: Dopamine transporter (DAT) radioligand binding; conditions: 10 μM, 0.15 nM [125I] RTI-55
# T9 construct: expressed in transfected cells; host or cells: CHO cells
# T9 sequence (Q01959 whole entry): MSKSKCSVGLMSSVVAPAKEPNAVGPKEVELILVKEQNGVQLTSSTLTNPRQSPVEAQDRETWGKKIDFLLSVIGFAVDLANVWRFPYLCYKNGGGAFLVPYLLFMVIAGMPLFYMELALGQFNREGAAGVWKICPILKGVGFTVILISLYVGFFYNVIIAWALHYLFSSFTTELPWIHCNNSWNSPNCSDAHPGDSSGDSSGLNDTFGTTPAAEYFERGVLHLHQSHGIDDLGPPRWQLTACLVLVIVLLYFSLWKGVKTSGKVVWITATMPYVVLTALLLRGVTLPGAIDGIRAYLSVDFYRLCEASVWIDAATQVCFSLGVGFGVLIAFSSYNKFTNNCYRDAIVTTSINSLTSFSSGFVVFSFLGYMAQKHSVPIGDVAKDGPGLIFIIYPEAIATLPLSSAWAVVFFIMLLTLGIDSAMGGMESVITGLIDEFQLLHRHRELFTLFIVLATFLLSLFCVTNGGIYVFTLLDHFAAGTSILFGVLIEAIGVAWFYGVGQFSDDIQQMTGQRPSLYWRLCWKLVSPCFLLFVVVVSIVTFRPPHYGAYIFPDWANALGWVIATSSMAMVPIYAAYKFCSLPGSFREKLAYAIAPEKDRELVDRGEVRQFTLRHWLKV
# Description: as §1
# [13] = system: Caco-2 monolayer; conditions: for Recovery: human, Caco-2, 1 h, 50 μM, pH 7.4
# Description: The assay relies on the ability of Caco-2 cells to differentiate into enterocytes when cultured on a microporous filter for a period of approximately 21 days. During the culture period, the Caco-2 cells undergo spontaneous morphological and biochemical changes, which produce a polarized monolayer with a well-defined brush border on the apical surface, as well as tight cellular junctions. Therefore, these cells may be used as an in vitro model for the analysis of drug permeability.
# Absorption across the Caco-2 monolayer can be measured in two directions: apical-to-basolateral or basolateral-to-apical, by adding the compound to the apical or the basolateral chamber, respectively. At various time-points, samples are collected from the receiver-chamber for analysis for the rate of absorption as measured by the apparent permeability coefficient (Papp) across the monolayer.
# The Papp value reflects a combination of the test article permeability through both transcellular (through cell membranes) and the paracellular (across the tight junctions between the cells) pathways. The relative contribution of these pathways depends upon the pKa, partition coefficient (log D), molecular radius, and charge of the test article at a given pH. Papp values can then be used to rank-order compounds for their permeability through Caco-2 monolayers.
# Absorption was determined at pH 7.4 across cell monolayers in the apical-to-basolateral direction. Caco-2 cells used to estimate Papp values were grown for 26 days on Transwell inserts in 12-well plates. Monolayer integrity was verified before and after the absorption assay by the methods of transepithelial electrical resistance (Ohm-cm^2) and Lucifer Yellow.
# On the day of the assay, the reference standards were diluted in Hank's balanced salt solution (HBSS), pH 7.4 to a final concentration of 50 μM. […] Dihydrotetrabenazine isomer samples were prepared at a concentration of 50 mM in DMSO. Each stock solution was further diluted in HBSS buffer (pH 7.4) to a final working concentration of 50 μM
# The Caco-2 cell suspensions were prepared as follows. […] Once the cell density and viability were determined, Caco-2 cells were diluted in culture medium to a final working concentration of 2.0×10^5 cells/ml. The Caco-2 culture medium contained Dulbecco's Modified Eagle Medium, 10% fetal bovine serum, 100 μM non-essential amino acids, 100 U/ml penicillin and 100 μg/ml streptomycin.
# Costar polycarbonate membranes (0.4 μm pore size) were pre-equilibrated with Caco-2 culture medium for 1 hour in a 37° C. water-jacketed incubator with 5% CO2. The content of the apical chamber was removed and replaced with 500 μl of Caco-2 cell suspension (200 000 cells/ml). Cells were further maintained in culture for 26 days in a 37° C. water-jacketed incubator with 5% CO2.
# Prior to the assay, all monolayers were washed twice with HBSS and their transepithelial electrical resistance (TEER) was measured with a Millicell-ERS meter. TEER values obtained in the absence of cells were subtracted as background signal. Only monolayer with TEER values over 150 Ohm-cm^2 were used for the absorption assay experiment.
# All absorption experiments were conducted in triplicate at pH 7.4. The rate of absorption of each reference standard and dihydrotetrabenazine test article was assessed in the apical-to-basolateral direction. Aliquots (100 μl) of each working solution (reference standards and test articles at 50 μM) were set aside at the beginning of the assay for the determination of the initial concentration (Co).
# Absorption experiments were initiated by replacing the content of the donor chamber with 500 μl of Hanks Balanced Salt Solution containing test articles or reference compounds. Cells were returned to the CO2 incubator for the absorption assay. Samples of 100 μl were collected from the receiver and donor chambers after 1 hour and were used to determine the percentage of recovery.
# [14] = molecular target: VMAT2 (Homo sapiens, UniProt Q05940); conditions: Erickson et al. (1996); cited from earlier work
# VMAT2, sequence (Q05940 whole entry): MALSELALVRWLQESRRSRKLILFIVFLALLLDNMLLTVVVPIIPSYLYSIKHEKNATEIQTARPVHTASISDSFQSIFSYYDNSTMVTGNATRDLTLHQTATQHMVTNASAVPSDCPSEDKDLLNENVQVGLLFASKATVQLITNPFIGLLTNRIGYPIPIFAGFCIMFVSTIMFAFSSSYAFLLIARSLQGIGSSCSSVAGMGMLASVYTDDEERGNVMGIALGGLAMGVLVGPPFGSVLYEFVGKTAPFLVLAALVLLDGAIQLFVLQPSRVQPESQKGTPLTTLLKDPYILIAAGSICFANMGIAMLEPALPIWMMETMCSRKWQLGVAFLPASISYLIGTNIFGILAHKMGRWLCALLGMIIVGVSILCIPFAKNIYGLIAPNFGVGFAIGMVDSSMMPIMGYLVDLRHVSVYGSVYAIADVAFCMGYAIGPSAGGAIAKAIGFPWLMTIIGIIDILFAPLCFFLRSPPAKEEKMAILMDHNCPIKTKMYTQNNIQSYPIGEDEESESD
# [15] = 1 mg/kg i.p., 45 minutes after administration
# [16] = 1 mg/kg i.p., 3 hours after administration
# [17] = 0.3 mg/kg i.p., 45 minutes after administration
# [18] = 0.3 mg/kg i.p., 3 hours after administration
# [19] = 3 mg/kg i.p., 45 minutes after administration
# [20] = 3 mg/kg i.p., 3 hours after administration
# [21] = 10 mg/kg i.p., 45 minutes after administration
# [22] = 10 mg/kg i.p., 3 hours after administration
compound,measurement,setting,value
O=C(O)c1ccccc1O [Salicylic Acid],"Papp A→B at 1 h, 50 μM",[1],8.91 ± 8.14 ×10⁻⁶ cm/s
same,"recovery at 1 h, 50 μM",[1],91.5 ± 11.4%
"O=C(CCCN1CCC(O)(c2ccc(Cl)cc2)CC1)c1ccc(F)cc1 [Haloperidol, reference compound]",Inactivity Duration,[2]; [15],637.2 ± 60.1 s
same,Large movements Duration,[2]; [15],14.8 ± 8.5 s
same,Large movements Occurrence,[2]; [15],58 ± 33
same,Inactivity Duration,[2]; [16],723.6 ± 50.2 s
same,Large movements Duration,[2]; [16],2.2 ± 2.0 s
same,Large movements Occurrence,[2]; [16],9 ± 8
OC[C@@H](O)[C@@H](O)[C@H](O)[C@H](O)CO [Mannitol],"Papp A→B at 1 h, 50 μM",[1],1.18 ± 0.14 ×10⁻⁶ cm/s
same,"recovery at 1 h, 50 μM",[1],97.1 ± 0.3%
C[C@]12CC[C@H]3[C@@H](CCC4=CC(=O)CC[C@@]43C)[C@@H]1CC[C@@H]2O [Testosterone],"recovery at 1 h, 50 μM",[1],105 ± 10.6%
"COc1cc2c(cc1OC)[C@H]1C[C@@H](O)[C@@H](CC(C)C)CN1CC2 (single isomer, unassigned) [Isomer D, 3,11b-cis-dihydrotetrabenazine]","Percentage Inhibition of Specific Binding, α2A Receptor",[3],87%
same,"Percentage Inhibition of Specific Binding, α2B Receptor",[4],50%
same,"Percentage Inhibition of Specific Binding, D1 Receptor",[5],38%
same,"Percentage Inhibition of Specific Binding, D2L Receptor",[6],58%
same,"Percentage Inhibition of Specific Binding, D3 Receptor",[7],63%
same,"Percentage Inhibition of Specific Binding, I2 Receptor",[8],55%
same,"Percentage Inhibition of Specific Binding, σ1 Receptor",[9],82%
same,"Percentage Inhibition of Specific Binding, σ2 Receptor",[10]; 10 μM,69%
same,"Percentage Inhibition of Specific Binding, SERT",[11],8%
same,"Percentage Inhibition of Specific Binding, DAT",[12],2%
same,permeability in the Caco-2 model (in words),[13],high permeability
same,Recovery,[13],106.5 ± 23.8%
"COc1cc2c(cc1OC)C1CC(=O)C(CC(C)C)CN1CC2 (racemic) [Tetrabenazine, 1,3,4,6,7,11b-hexahydro-9,10-dimethoxy-3-(2-methylpropyl)-2H-benzo(a)quinolizin-2-one]",Inactivity Duration,[2]; [17],390.4 ± 37.4 s
same,Large movements Duration,[2]; [17],66.8 ± 10.7 s
same,Large movements Occurrence,[2]; [17],253 ± 32
same,Inactivity Duration,[2]; [18],545.9 ± 37.1 s
same,Large movements Duration,[2]; [18],24.3 ± 4.2 s
same,Large movements Occurrence,[2]; [18],96 ± 14
same,Inactivity Duration,[2]; [15],456.5 ± 50.5 s
same,Large movements Duration,[2]; [15],46.5 ± 8.6 s
same,Large movements Occurrence,[2]; [15],189 ± 32
same,Inactivity Duration,[2]; [16],556.9 ± 31.1 s
same,Large movements Duration,[2]; [16],21.5 ± 4.0 s
same,Large movements Occurrence,[2]; [16],90 ± 16
same,Inactivity Duration,[2]; [19],697.8 ± 39.7 s
same,Large movements Duration,[2]; [19],8.7 ± 5.9 s
same,Large movements Occurrence,[2]; [19],38 ± 25
same,Inactivity Duration,[2]; [20],729.9 ± 26.8 s
same,Large movements Duration,[2]; [20],1.7 ± 0.9 s
same,Large movements Occurrence,[2]; [20],9 ± 4
same,Inactivity Duration,[2]; [21],723.1 ± 46.5 s
same,Large movements Duration,[2]; [21],0.2 ± 0.2 s
same,Large movements Occurrence,[2]; [21],1 ± 1
same,Inactivity Duration,[2]; [22],762.1 ± 40.7 s
same,Large movements Duration,[2]; [22],0.6 ± 0.3 s
same,Large movements Occurrence,[2]; [22],3 ± 1
same,sedative effect (in words),"[2]; 0.3-10 mg/kg i.p., 45 minutes and 3 hours after administration",dose-dependent sedative effect; also recorded: dose related sedative effect
same,affinity for VMAT2 in comparison to VMAT1,[14],≥ 200 fold
"COc1cc2c(cc1OC)[C@H]1C[C@H](O)[C@@H](CC(C)C)CN1CC2 (single isomer, unassigned) [Isomer A, 3,11b-cis-dihydrotetrabenazine]","Percentage Inhibition of Specific Binding, α2A Receptor",[3],86%
same,"Percentage Inhibition of Specific Binding, α2B Receptor",[4],44%
same,"Percentage Inhibition of Specific Binding, D1 Receptor",[5],78%
same,"Percentage Inhibition of Specific Binding, D2L Receptor",[6],87%
same,"Percentage Inhibition of Specific Binding, D3 Receptor",[7],69%
same,"Percentage Inhibition of Specific Binding, I2 Receptor",[8],74%
same,"Percentage Inhibition of Specific Binding, σ1 Receptor",[9],48%
same,inhibition at 10 µM,"[10]; read-out: Percentage Inhibition of Specific Binding, σ2 Receptor",64%
same,"Percentage Inhibition of Specific Binding, SERT",[11],19%
same,inhibition at 10 µM,"[12]; read-out: Percentage Inhibition of Specific Binding, DAT",3%
same,permeability in the Caco-2 model (in words),[13],high permeability
same,Recovery,[13],106.8 ± 7.9%
